Measurements: patent publication US20210353749A1, “GUANABENZ AS AN ADJUVANT FOR IMMUNOTHERAPY” (UNIVERSITÉ CATHOLIQUE DE LOUVAIN, priority 2018, published 2021)

Tests used:
TiRP tumor = experiment: TiRP melanoma model, drug alone; type: in vivo, mouse; details: 5 mg/kg i.p. daily from tumor size around 400 mm^3 (day 0) to day 12, vs vehicle; FIG. 3
Description: TiRP mice: TiRP mice have been created by crossing Ink4a/Arf^flox/flox mice with mice carrying a transgenic construct controlled by the tyrosinase promoter and driving the expression of H-Ras^12V and Trap1a which encodes a MAGE-type tumor antigen P1A; the promoter is separated from the coding region by a stop cassette made of a floxed self-deleting CreER (Huijbers et al., 2006, Cancer Res 66, 3278-3286). Those mice were backcrossed to a B10.D2 background and bred to homozygosity. TCRP1A mice heterozygous for the H-2Ld/P1A35-43-specific TCR transgene were kept on the B10.D2; Rag1^−/− background (Shanker et al., 2004, J Immunol 172, 5069-5077). All mice used in this study were produced under specific pathogen free (SPF) conditions at the animal facility of the Ludwig Institute for Cancer Research. All the rules concerning animal welfare have been respected according to the 2010/63/EU Directive. […]
A fresh solution of 40H-Tamoxifen was prepared by dissolving 40H-Tamoxifen (Imaginechem) in 100% ethanol and mineral oil (ratio 1:9) followed by 30-min sonication, and injected subcutaneously (2 mg/200 μL per mouse) in the neck area of gender-matched 7 weeks old TiRP mice. Tumor appearance was monitored daily and tumors were measured three times/week. Tumor volume (in mm^3) was calculated by the following formula: Volume=width^2×length/2. […]

Mouse NK cells = experiment: In vitro NK cell function (CD107a degranulation); type: cell-based; details: guanabenz 20 μM, 16 hours, RMA-S target cells; FIG. 10
Description: Mouse NK cells: murine NK cells were isolated from mouse splenocytes using anti-CD49b magnetic beads. Murine NK cells were isolated from mouse splenocytes using anti-CD49b magnetic beads and were activated in vitro by co-incubation with irradiated RMA-S cells. 4 days after activation, they were collected and plated at 50,000 cells per well in a 96 U plate with 20 μM of guanabenz and incubated at 37° C. overnight prior to their use in the assay on the next day. On the day of the assay, the culture supernatant was removed from the cells and the cells were washed once with complete medium to remove the drug. The target cells (RMA-S cells) were added to the wells at a ratio of 1:1. Control wells containing either only NK cells or target cells were also included for each plate. CD107a-APC was added to each well at the same time as addition of the target cells. The plate was then incubated at 37° C. for 90 minutes. At the end of the incubation period the cells were harvested and washed once with PBS. They were stained with anti-mouse CD49b-PE antibody for 15 minutes. The cells were then washed and resuspended in PBS and analyzed using FACS Fortessa flow cytometer.

[1] = system: IFNγ producing CD8+ T cells; experiment: Immunization with ovalbumin; type: in vivo, C57BL/6J mice; details: 100 μg (5 mg/kg) guanabenz with OVA/Alhydrogel, vs non-immunized control
Description: Immunization with Ovalbumin: C57BL/6J mice were immunized once by intraperitoneal (i.p.) injection of 200 ug of OVA protein adsorbed onto Alhydrogel adjuvant 2% (Sigma) These mice were administered 100 μg (5 mg/kg) of guanabenz 2 hours before the immunization and daily after the immunization. […] Intracellular IFNγ staining: one week after the immunization, the blood and spleen of each mouse were collected. Cells derived from the spleen and blood of each immunized mouse were cultured for 1 hour in 96 well U bottomed plates at 37° C. in the presence of 10 μM OVA peptide. Brefeldin A (10 μg/mL) was added to each well and the cells were incubated for an additional 4 hours. The immune response of each mouse was evaluated by measuring the amount of IFNγ producing CD8^+ T cells using antibodies against CD8 and IFNγ. Samples were then examined by FACS Fortessa flow cytometry.

[2] = system: Mouse TCRP1A CD8+ T cells; experiment: IFNγ secretion assay (ELISA), mouse T cells; type: cell-based; details: guanabenz 10, 20 or 40 μM, 16 h to 24 h, co-culture with L1210-P1A-B7.1 target cells; FIG. 1B
Description: Mouse TCRP1A CD8^+ T cells: P1A-specific (TCRP1A) CD8^+ T cells were isolated from spleens and lymph nodes of TCRP1A mice using anti-mouse CD8a (Ly-2) MicroBeads (Miltenyi Biotec). IFNγ secretion assay: CD8^+ T cells were plated at 50,000 cells per well in a 96 U plate with different concentration of guanabenz in full medium supplemented with IL2 and incubated at 37° C. overnight prior to their use in the assay on the next day. On the day of the assay, the culture supernatant was removed from the cells and the cells were washed once with complete medium to remove the drug completely. The target cells L1210-P1A-B7.1 or T2 cells loaded with WT1126-134 peptide were added to the wells at a ratio of 1:1. Control wells containing either only T cells or […] were also included for each plate. The plate was then incubated at 37° C. overnight. At the end of the incubation period the supernatant was collected and the amount of IFNγ was measured by ELISA according to manufacturer's instruction (R&D). T cells were incubated with guanabenz (10, 20, or 40 μM) for 16 h to 24 h as indicated. Mice received a daily intra-peritoneal injection of guanabenz (5 mg/kg) or vehicle (PBS) from the day of randomization (and the day of ACT when applicable) until the day of sacrifice.

## NC(N)=N/N=C/c1c(Cl)cccc1Cl [guanabenz, 2-[(E)-(2,6-dichlorophenyl)methylideneamino]guanidine]
TiRP tumor
  TiRP tumor growth: inhibitory effect
Mouse NK cells
  NK cell degranulation (FACS detection of CD107a): significantly increased
[1]; blood cells with 10 μM OVA peptide, FIG. 8A
  percentage of IFNγ producing CD8+ T cells among total CD8+ T, blood: significant increase
[1]; spleen cells with 10 μM OVA peptide, FIG. 8B
  percentage of IFNγ producing CD8+ T cells among total CD8+ T, spleen: significant increase
[2]
  secretion of IFNγ (ELISA): increased
